Assay results as given in ChEMBL document CHEMBL5653616, “FRAX597, a small molecule inhibitor of the p21-activated kinases, inhibits tumorigenesis of neurofibromatosis type 2 (NF2)-associated Schwannomas” (J Biol Chem, 2013).
Calls of active or inactive are those of the source. The rule behind the calls is not given here.

How the values were obtained:
SC4 [1] = experiment: Induction of cell cycle arrest in mouse SC4 [Mouse schwannoma] cells assessed as accumulation of cells at sub-G1 phase at 1 uM measured upto 96 hrs by propidium iodide staining based flow cytometeric analysis; assay type: functional
[2] = biological target: Proto-oncogene tyrosine-protein kinase receptor Ret (Homo sapiens) (UniProt P07949); settings: dose 100.0 nM
Sequence of Proto-oncogene tyrosine-protein kinase receptor Ret (Homo sapiens) (P07949 whole entry): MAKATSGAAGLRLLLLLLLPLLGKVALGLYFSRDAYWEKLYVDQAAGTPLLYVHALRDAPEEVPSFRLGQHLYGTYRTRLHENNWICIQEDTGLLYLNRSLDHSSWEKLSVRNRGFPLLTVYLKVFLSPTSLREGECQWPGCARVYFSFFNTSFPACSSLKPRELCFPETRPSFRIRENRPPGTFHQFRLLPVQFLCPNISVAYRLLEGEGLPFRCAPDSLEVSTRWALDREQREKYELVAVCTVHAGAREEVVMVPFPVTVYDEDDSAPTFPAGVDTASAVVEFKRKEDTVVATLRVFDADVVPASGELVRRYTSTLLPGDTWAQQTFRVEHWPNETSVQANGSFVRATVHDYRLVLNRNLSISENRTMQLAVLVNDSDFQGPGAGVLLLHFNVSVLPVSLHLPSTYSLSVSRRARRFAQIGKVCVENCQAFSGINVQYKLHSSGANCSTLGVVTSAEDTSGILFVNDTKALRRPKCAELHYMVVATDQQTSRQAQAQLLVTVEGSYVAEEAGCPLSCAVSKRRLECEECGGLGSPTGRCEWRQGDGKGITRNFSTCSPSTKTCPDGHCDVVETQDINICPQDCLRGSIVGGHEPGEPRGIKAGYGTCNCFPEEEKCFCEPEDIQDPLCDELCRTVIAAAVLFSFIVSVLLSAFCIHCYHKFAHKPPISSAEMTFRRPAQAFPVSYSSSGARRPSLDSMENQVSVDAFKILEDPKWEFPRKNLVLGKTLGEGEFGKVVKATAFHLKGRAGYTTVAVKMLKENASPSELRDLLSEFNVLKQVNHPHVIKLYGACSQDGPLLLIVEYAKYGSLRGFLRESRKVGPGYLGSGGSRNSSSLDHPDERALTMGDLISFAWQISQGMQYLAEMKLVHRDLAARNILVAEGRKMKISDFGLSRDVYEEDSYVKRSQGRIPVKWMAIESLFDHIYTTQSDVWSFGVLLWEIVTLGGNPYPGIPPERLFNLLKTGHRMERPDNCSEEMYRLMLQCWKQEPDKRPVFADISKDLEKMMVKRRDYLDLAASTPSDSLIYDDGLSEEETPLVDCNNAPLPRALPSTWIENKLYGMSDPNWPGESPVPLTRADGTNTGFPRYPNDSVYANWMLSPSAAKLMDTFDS
Description: Inhibition of RET (unknown origin) at 100 nM by Z-LYTE biochemical assay relative to control

[3] = Induction of cell cycle arrest in mouse SC4 [Mouse schwannoma] cells assessed as accumulation of cells at G2/M phase at 1 uM measured upto 96 hrs by propidium iodide staining based flow cytometeric analysis (reference value: 22%); assay type: functional
[4] = Inhibition of PAK1 V342Y mutant (unknown origin) in presence of ATP by KinaseGlo assay
[5] = biological target: Angiopoietin-1 receptor (Homo sapiens) (UniProt Q02763); settings: dose 100.0 nM
Description: Inhibition of TEK (unknown origin) at 100 nM by Z-LYTE biochemical assay relative to control

SC4 [6] = experiment: Downregulation of RET expression in mouse SC4 [Mouse schwannoma] cells by Western blotting analysis; assay type: functional, cell-based
[7] = biological target: Serine/threonine-protein kinase PAK 2 (Homo sapiens) (UniProt Q13177); settings: dose 100.0 nM
Sequence of Serine/threonine-protein kinase PAK 2 (Homo sapiens) (Q13177 whole entry): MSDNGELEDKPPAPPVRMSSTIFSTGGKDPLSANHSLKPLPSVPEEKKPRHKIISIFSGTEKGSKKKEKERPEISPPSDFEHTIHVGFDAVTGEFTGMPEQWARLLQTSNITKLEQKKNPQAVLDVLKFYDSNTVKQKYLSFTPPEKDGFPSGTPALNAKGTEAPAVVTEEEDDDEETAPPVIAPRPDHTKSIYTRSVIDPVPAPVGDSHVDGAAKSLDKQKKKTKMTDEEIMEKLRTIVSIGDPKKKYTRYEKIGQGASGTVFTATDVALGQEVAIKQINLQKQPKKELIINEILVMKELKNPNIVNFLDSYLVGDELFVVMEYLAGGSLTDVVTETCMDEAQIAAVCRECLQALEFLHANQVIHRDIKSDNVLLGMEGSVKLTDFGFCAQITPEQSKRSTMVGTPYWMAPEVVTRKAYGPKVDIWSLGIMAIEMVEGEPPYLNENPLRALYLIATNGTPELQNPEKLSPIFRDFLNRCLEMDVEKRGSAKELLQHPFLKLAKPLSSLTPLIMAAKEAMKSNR
Description: Inhibition of PAK2 (unknown origin) at 100 nM by Z-LYTE biochemical assay relative to control

[8] = biological target: Macrophage colony-stimulating factor 1 receptor (Homo sapiens) (UniProt P07333); settings: dose 100.0 nM
Description: Inhibition of CSF1R (unknown origin) at 100 nM by Z-LYTE biochemical assay relative to control

SC4 [9] = experiment: Downregulation of TEK1 expression in mouse SC4 [Mouse schwannoma] cells by Western blotting analysis; assay type: functional, cell-based
SC4 [10] = experiment: Antiproliferative activity against mouse SC4 [Mouse schwannoma] cells assessed as reduction in cell viability at 1 uM measured upto 96 hrs by coulter counter analysis; assay type: functional, cell-based
[11] = Induction of cell cycle arrest in mouse SC4 [Mouse schwannoma] cells assessed as accumulation of cells at G1 phase at 1 uM measured upto 96 hrs by propidium iodide staining based flow cytometeric analysis (reference value: 50%); assay type: functional
SC4 [12] = experiment: Antitumor activity against Nf2 knockout mouse SC4 [Mouse schwannoma] cells harbouring pLuc-mCherry implanted in NOD/SCID mouse assessed as reduction in tumor growth at 100 mg/kg, po qd administered for 14 days by bioluminescence imaging analysis; assay type: functional, organism-based; settings: time 14.0 day
SC4 [13] = experiment: Downregulation of CSF1R expression in mouse SC4 [Mouse schwannoma] cells by Western blotting analysis; assay type: functional, cell-based
SC4 [14] = experiment: Downregulation of YES1 expression in mouse SC4 [Mouse schwannoma] cells by Western blotting analysis; assay type: functional, cell-based
[15] = biological target: Tyrosine-protein kinase Yes (Homo sapiens) (UniProt P07947); settings: dose 100.0 nM
Sequence of Tyrosine-protein kinase Yes (Homo sapiens) (P07947 2-543 limits assumed): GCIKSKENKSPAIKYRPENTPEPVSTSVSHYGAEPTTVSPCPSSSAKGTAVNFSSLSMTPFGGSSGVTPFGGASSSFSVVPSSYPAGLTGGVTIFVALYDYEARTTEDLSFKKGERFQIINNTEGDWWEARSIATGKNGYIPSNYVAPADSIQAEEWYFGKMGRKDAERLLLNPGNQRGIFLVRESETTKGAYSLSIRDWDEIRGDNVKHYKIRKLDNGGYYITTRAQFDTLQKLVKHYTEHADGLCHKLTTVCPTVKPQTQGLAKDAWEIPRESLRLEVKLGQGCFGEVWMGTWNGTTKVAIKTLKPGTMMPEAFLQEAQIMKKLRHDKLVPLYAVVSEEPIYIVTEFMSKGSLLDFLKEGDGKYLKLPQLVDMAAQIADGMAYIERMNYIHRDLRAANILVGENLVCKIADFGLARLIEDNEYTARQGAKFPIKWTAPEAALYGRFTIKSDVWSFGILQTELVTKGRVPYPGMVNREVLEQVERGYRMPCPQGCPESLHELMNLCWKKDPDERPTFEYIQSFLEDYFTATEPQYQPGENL
Description: Inhibition of YES1 (unknown origin) at 100 nM by Z-LYTE biochemical assay relative to control

[16] = biological target: Serine/threonine-protein kinase PAK 1 (Mus musculus, UniProt O88643)
Sequence of Serine/threonine-protein kinase PAK 1 (Mus musculus, UniProt O88643) (O88643 whole entry): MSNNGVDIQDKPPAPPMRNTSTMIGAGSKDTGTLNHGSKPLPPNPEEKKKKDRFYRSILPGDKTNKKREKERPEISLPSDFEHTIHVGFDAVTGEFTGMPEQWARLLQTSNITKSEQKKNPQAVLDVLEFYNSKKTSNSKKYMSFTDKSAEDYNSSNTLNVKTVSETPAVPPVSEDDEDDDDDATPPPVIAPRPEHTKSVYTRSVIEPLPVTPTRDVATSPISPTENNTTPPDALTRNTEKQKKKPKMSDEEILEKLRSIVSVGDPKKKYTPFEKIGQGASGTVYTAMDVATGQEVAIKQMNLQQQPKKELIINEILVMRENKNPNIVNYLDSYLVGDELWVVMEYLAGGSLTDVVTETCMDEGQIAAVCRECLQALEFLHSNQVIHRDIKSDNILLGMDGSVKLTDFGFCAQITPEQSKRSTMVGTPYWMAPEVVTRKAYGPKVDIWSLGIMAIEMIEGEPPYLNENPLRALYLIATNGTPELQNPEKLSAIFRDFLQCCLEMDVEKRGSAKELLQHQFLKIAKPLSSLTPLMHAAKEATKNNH
Description: Inhibition of PAK1 in mouse SC4 [Mouse schwannoma] cells assessed as reduction in p-PAK1 at serine 144 residue at 1 to 5 uM incubated for 2 hrs by Western blotting analysis

[17] = Induction of cell cycle arrest in mouse SC4 [Mouse schwannoma] cells assessed as accumulation of cells at S phase at 1 uM measured upto 96 hrs by propidium iodide staining based flow cytometeric analysis (reference value: 27%); assay type: functional
[18] = Inhibition of PAK1 V342F mutant (unknown origin) in presence of ATP by KinaseGlo assay
[19] = biological target: T1, Serine/threonine-protein kinase PAK 4 (Homo sapiens, UniProt O96013); settings: dose 100.0 nM
Target sequence in this assay (O96013 whole entry, looked up): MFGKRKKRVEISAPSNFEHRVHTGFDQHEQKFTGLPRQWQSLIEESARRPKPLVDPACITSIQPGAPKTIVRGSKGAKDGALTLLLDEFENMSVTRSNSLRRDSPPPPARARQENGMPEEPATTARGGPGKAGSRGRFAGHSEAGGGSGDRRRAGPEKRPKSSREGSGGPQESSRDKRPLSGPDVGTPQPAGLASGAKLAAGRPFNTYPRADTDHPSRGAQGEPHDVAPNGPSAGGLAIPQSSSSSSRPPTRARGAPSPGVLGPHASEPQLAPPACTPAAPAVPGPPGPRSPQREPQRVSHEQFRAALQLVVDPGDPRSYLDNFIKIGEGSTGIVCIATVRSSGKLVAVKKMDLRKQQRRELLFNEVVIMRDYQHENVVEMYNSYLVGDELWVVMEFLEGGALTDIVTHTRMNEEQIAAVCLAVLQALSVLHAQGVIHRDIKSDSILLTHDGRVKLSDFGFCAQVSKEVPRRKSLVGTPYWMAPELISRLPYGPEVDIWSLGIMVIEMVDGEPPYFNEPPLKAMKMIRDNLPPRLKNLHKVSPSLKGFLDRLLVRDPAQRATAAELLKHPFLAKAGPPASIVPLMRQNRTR
Description: Inhibition of PAK4 (unknown origin) at 100 nM by Z-LYTE biochemical assay relative to control

[20] = biological target: T1, Serine/threonine-protein kinase PAK 4; experiment: Inhibition of PAK4 (unknown origin) by Z-LYTE biochemical assay
Target sequence in this assay (O96013 whole entry): as the sequence (O96013 whole entry, looked up) above

[21] = biological target: Serine/threonine-protein kinase PAK 5 (Homo sapiens) (UniProt Q9P286); settings: dose 100.0 nM
Sequence of Serine/threonine-protein kinase PAK 5 (Homo sapiens) (Q9P286 whole entry, looked up): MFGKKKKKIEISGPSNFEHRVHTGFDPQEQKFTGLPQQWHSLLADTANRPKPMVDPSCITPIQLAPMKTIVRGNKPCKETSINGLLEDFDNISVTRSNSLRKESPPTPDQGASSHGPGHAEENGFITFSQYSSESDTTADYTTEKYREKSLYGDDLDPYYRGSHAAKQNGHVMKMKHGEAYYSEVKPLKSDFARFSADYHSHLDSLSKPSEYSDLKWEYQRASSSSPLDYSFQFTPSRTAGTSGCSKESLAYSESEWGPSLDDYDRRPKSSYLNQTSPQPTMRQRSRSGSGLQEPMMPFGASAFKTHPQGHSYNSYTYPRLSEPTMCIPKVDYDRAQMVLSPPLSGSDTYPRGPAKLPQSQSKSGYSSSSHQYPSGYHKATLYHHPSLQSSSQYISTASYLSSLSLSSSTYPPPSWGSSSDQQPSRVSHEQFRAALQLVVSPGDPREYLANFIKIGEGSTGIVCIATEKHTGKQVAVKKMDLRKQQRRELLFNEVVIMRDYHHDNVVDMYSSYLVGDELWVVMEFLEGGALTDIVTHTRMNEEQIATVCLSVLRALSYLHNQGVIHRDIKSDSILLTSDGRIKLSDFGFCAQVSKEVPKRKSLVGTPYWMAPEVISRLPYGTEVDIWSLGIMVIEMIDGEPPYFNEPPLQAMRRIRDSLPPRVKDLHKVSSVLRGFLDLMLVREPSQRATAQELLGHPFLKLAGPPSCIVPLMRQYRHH
Description: Inhibition of PAK7 (unknown origin) at 100 nM by Z-LYTE biochemical assay relative to control

SC4 [22] = experiment: Antitumor activity against Nf2 knockout mouse SC4 [Mouse schwannoma] cells harbouring pLuc-mCherry implanted in NOD/SCID mouse assessed as reduction in tumor weight at 100 mg/kg, po qd administered for 14 days; assay type: functional, organism-based; settings: time 14.0 day
[23] = biological target: Serine/threonine-protein kinase PAK 6 (Homo sapiens) (UniProt Q9NQU5); settings: dose 100.0 nM
Description: Inhibition of PAK6 (unknown origin) at 100 nM by Z-LYTE biochemical assay relative to control

[24] = biological target: Serine/threonine-protein kinase PAK 1 (Homo sapiens, UniProt Q13153); experiment: Inhibition of TEV protease fused 6His-tagged PAK1 KD (249 to 545 residues) (unknown origin) expressed in Sf21 cells by Z-LYTE biochemical assay
Sequence of Serine/threonine-protein kinase PAK 1 (Homo sapiens, UniProt Q13153) (Q13153 whole entry, the tested form may be a part): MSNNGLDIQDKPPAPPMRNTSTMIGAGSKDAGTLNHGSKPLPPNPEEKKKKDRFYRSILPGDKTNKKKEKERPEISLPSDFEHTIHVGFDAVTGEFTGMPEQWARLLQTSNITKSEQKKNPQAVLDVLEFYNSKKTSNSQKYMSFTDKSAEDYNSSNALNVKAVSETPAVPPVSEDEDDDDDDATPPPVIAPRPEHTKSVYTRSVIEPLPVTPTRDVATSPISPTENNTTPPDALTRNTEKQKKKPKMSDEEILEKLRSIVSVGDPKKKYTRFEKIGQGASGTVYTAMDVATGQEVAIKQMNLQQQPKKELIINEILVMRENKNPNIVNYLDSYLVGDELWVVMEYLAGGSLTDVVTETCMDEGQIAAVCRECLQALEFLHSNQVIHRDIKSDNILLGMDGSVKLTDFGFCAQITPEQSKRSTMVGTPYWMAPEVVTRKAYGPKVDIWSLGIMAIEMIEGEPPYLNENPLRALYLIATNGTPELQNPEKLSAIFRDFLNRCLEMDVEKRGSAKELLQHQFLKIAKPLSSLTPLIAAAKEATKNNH

With `CCn1c(=O)c(-c2ccc(-c3cncs3)cc2Cl)cc2cnc(Nc3ccc(N4CCN(C)CC4)cc3)nc21.Cl` the Activity (SC4 [1]) was “inactive”, the inhibition [2] was 82% and the Activity [3] was 11%. For the same molecule, the IC50 [4] was greater than 2000 nM, the inhibition [5] was 87% and the Activity (SC4 [6]) was “Active”. For the same molecule, the inhibition [7] was 93%, the inhibition [8] was 91% and the Activity (SC4 [9]) was “Active”. The Activity (SC4 [10]) was “Active”, the Activity [11] was 74% and the Activity (SC4 [12]) was “Active”. The Activity (SC4 [13]) was “Active”, the Activity (SC4 [14]) was “Active” and the inhibition [15] was 87%. For the same molecule, the IC50 [16] was 70 nM, the Activity [17] was 12% and the IC50 [18] was greater than 3000 nM. For the same molecule, the inhibition [19] was 0%, the IC50 [20] was greater than 10000 nM and the inhibition [21] was 8%. For the same molecule, the Activity (SC4 [22]) was “Active” and the inhibition [23] was 23%.

In the case of `Cc1nc(Nc2n[nH]c3c2CN(C(=O)N[C@H](CN(C)C)c2ccccc2)C3(C)C)c2sccc2n1`, the Activity (SC4 [10]) is reported as “Active”.

In the case of `CN1CCN(c2ccc(Nc3ncc4ccc(=O)n(C5CCCC5)c4n3)cc2)CC1`, the IC50 [20] is reported as 580 nM and the IC50 [24] is reported as 483 nM.

`CCn1c(=O)c(-c2ccc(Cl)cc2Cl)cc2cnc(Nc3ccc(N4CCN(C)CC4)cc3)nc21` showed an IC50 [20] of 559 nM and an IC50 [24] of 20 nM.
